Marks after values point to notes of the source that are not given here.
Columns and labels:
[1] = tested on: first generation of rigid ryegrass (Lolium rigidum) collected from California; assay: Glyphosate resistance and sensitivity of the first generation; format: in vivo; conditions: for Survivors: means of two experiments with 90 plants
Method: Rigid ryegrass (Lolium rigidum Gaud.) plants are collected from an almond orchard intensively treated with glyphosate since 1984. The collected plants are grown and seed produced in greenhouse. The resistant, intermediate and susceptible biotypes are selected in the first generation using 1.12, 2.24, and 3.36 kg ai ha^−1 rates of glyphosate. Further selection is continued with a high glyphosate rate (8.96 kg ai ha^−1) to select for the resistant and with the low rate (0.28 kg ai ha^−1) to select for the susceptible individuals. The resistant (R) and susceptible (S) biotypes used in this example are generated from the 5th and 4th cycle, respectively.
The collected plants produced seeds in the greenhouse after 8 to 10 weeks. The seeds are designated as the first generation, harvested and replanted for glyphosate resistant evaluation. The percentages of survivors are 89, 59, 45, and 9 percent following glyphosate application at 1×, 2×, 4× and 8×, respectively, is shown in Table 2.

S line of rigid ryegrass = assay: Dose response study of plant injury, S line; format: in vivo, Lolium rigidum; conditions: visual injury 4 WAT, 1× = 1.12 kg ai ha^-1
Method: A dose response study is conducted on the R and S lines of rigid ryegrass. The rates of glyphosate applied varied from 0.125×, 0.25×, 0.5×, 1×, 2×, 4×, 6×, 8×, 10×, to 12×. The sprayed solutions and application procedures are similar to those described previously. Plants are evaluated for visual injury at 4 WAT. Data (4 WAT) from two experiments with 8 replications of each treatment are analyzed by non-linear regression and fitted to a log-logistic model:
[formula] where y is predictive of plant injury (% of control), X50=dose required to obtain 50% injury and b is the slope at X50.

[2] = tested on: F2 population of rigid ryegrass; assay: Glyphosate sensitivity of F2 population (RxS intercross); format: in vivo, Lolium rigidum; conditions: of 400 F2 plants
Method: Twenty uniform non-sprayed plants of the F1 progeny (R×S) are grown and pooled to allow intercrossing to generate F2. Seeds are harvested at maturity and grown as described previously. Glyphosate sensitivity is further evaluated in the F2 population. At the tillering stage, as described previously, 400 plants of the F2 population are sprayed with 0.125× glyphosate (the rate used to identify the sensitive parent). The number of sensitive plants (severely injured and dead) is recorded 3 to 4 WAT. The survivors are re-acclimated for another week and re-sprayed with 8× glyphosate (the rate used to identify the resistant parent). The number of survivors is recorded 3 to 4 WAT. […] Expected ratios in the F2 population between sensitive, intermediate, and the resistant are evaluated with the model of one or two genes involved in the inheritance of glyphosate resistance as discussed in, for example, Diggle and Neve in Herbicide Resistance and World Grains, S. B. Powles and D. L. Shaner, eds. CRC Press, Boca Raton, London, New York, Washington, D.C., pp. 61-99 (2001). Chi-square analyses are used to determine the most acceptable ratio for F2 segregation and the inheritance of the glyphosate resistance.

perennial ryegrass = assay: Glyphosate sensitivity of perennial ryegrass parent; format: in vivo, Lolium perenne; conditions: sensitive parent
Method: The R biotype of California rigid ryegrass, which survived 8× glyphosate and perennial ryegrass, which died from 0.25× of glyphosate, are grown individually in 950-ml pots with professional planting mix media as discussed above. Plants are maintained in greenhouse with supplemental light, watered daily, and fertilized weekly with NPK water soluble fertilizer (20-20-20). At the mature vegetative stage, perennial ryegrass plants are vernalized in the growth chamber with the temperature 4 ±1 C, 8 h day and 16 h night. After 4 weeks vernalization, the plants are removed and maintained in greenhouse until flowering.
Segregation of glyphosate sensitivity in the F2 population is illustrated in FIG. 4. The percentage of the sensitive plants in F2 (16 percent) is higher than expected due to the glyphosate rate (0.5×) exceeded the sensitivity level of sensitive parents.

[3] = tested on: resistant (R) clone from F2bc1 hybrid; assay: Glyphosate sensitivity of resistant clone from F2bc1; format: in vivo, Lolium perenne x Lolium rigidum
Method: The resistant plant from F2 population is backcrossed to the S parent (perennial ryegrass). Procedures for vernalization and pollination are similar to what is described above. Plants of the F1 hybrid from the backcross (F1bc1) are allowed to intercross to generate F2 (F2bc1). The inheritance of glyphosate resistance traits is evaluated in the F2bc1 population. Glyphosate sensitivity is evaluated at 0.25× and 8× glyphosate. Data collection and genetic evaluation are similar to the procedures as described above.
Backcrossing between the resistant plants from F2 to the sensitive parent of perennial ryegrass is designed to re-capture agronomic characteristics of sensitive parents (perennial ryegrass). The level of glyphosate resistance in the F1bc1 population appears to be similar to the previous results in F1 population. Distribution of glyphosate sensitivity level in the F2bc1 population is illustrated in FIG. 5. A sample of the resistant plants from the F2bc1 is evaluated for the level of sensitivity at 0, 1, 2, 4, 6, 8, 10, 12, and 14× glyphosate and data is illustrated in FIG. 6. No injury is observed up to 6× glyphosate, slight injury is observed at 8× and 10×, and severe injury is observed at 12× glyphosate.

[4] = glyphosate 1.12 kg ai ha^-1 (1x)
[5] = glyphosate 2.24 kg ai ha^-1 (2x)
[6] = glyphosate 4.48 kg ai ha^-1 (4x)
[7] = glyphosate 8.96 kg ai ha^-1 (8x)

O=C(O)CNCP(=O)(O)O [glyphosate, N-(phosphonomethyl) glycine]
Dead plants [1, 4]: 11^c percent
Survivors [1, 4]: 89%
Dead plants [1, 5]: 41%
Survivors [1, 5]: 59%
Dead plants [1, 6]: 55%
Survivors [1, 6]: 45%
Dead plants [1, 7]: 91%
Survivors [1, 7]: 9%
Survivors ([1]; glyphosate 8.96 kg ai ha^-1 (8x), listed as Glyphosate): 9^b percent
glyphosate rate for 50% injury (S line of rigid ryegrass): 0.1 ×
Sensitive plants (died from 0.125× glyphosate), observed ([2]; 0.125× glyphosate, 3 to 4 WAT): 27 plants
Intermediate plants (0.125x-8x), observed ([2]; between 0.125× and 8× glyphosate): 352 plants
Resistant plants (survived 8× glyphosate), observed ([2]; re-sprayed with 8× glyphosate, 3 to 4 WAT): 21 plants
sensitivity level (glyphosate rate from which plants died) (perennial ryegrass): 0.25 ×
injury ([3]; 8× and 10× glyphosate): slight injury
injury ([3]; 12× glyphosate): severe injury
injury ([3]; up to 6× glyphosate): No injury

Source: US7906709B2, “Methods for breeding glyphosate resistant plants and compositions thereof” (priority 2006, dated 2011)
